Non-standard residues stand in square brackets, D forms with d. Residues, ends and D or L forms follow the SMILES beside them. *: point of attachment. X1 = CC(=O)N[C@@H]1[C@@H](O[C@@H]2O[C@H](CO)[C@H](O)[C@H](O)[C@H]2O)[C@@H](O)[C@@H](CO)O[C@@H]1*; pGlu = O=C1CC[C@@H](C(=O)O)N1
Tests used:
[1] = mouse, in vivo
[2] = mouse, in vivo; remark: listed apart in the source

Compound	motor impairment on rotorod compared to vehicle [1]	antinociceptive doses relative to doses for locomotor impairment or hypothermia [2]	doses causing long-lasting motor impairment, as multiple of ED50 [2]	duration of motor impairment [2]	time of maximal locomotor impairment post i.t. injection [2]	TD50, rotorod test of minimal motor impairment [2]	time after which motor impairment resolved [2]
CC[C@H](C)[C@H](NC(=O)[C@H](Cc1ccc(O)cc1)NC(=O)[C@@H]1CCCN1C(=O)[C@H](CCCCN)NC(=O)[C@H](CCCCN)NC(=O)[C@@H](NC(=O)[C@H](C)NC(=O)[C@H](CC(N)=O)NC(=O)[C@H](CO)NC(=O)CNC(=O)CNC(=O)[C@H](CCC(=O)O)NC(=O)[C@H](CCC(=O)O)NC(=O)[C@H](CO)NC(=O)[C@@H]1CCC(=O)N1)[C@@H](C)O)C(=O)N[C@@H](CC(C)C)C(=O)O [Thr10-contulakin-G] (HELM PEPTIDE1{[Glp].S.E.E.G.G.S.N.A.T.K.K.P.Y.I.L}$$$$V2.0)	no motor impairment	approximately equal doses	≥ 10 fold	2 to 3 h	15 min		
CC[C@H](C)[C@H](NC(=O)[C@H](Cc1ccc(O)cc1)NC(=O)[C@@H]1CCCN1C(=O)[C@H](CCCCN)NC(=O)[C@H](CCCCN)NC(=O)[C@@H](NC(=O)[C@H](C)NC(=O)[C@H](CC(N)=O)NC(=O)[C@H](CO)NC(=O)CNC(=O)CNC(=O)[C@H](CCC(=O)O)NC(=O)[C@H](CCC(=O)O)NC(=O)[C@H](CO)NC(=O)[C@@H]1CCC(=O)N1)[C@@H](C)O[C@H]1O[C@H](CO)[C@H](O)[C@H](O[C@@H]2O[C@H](CO)[C@H](O)[C@H](O)[C@H]2O)[C@H]1NC(C)=O)C(=O)N[C@@H](CC(C)C)C(=O)O [contulakin-G] ([pGlu]SEEGGSNAT(X1)KKPYIL-OH)		10-100 fold	≥ 100 fold		15 min	10 to 20 pmol	5 h
